Results: publication PMC8333425, “Discovery of a dual Ras and ARF6 inhibitor from a GPCR endocytosis screen” (Nature Communications, 2021)
Values joined by “and” are separate entries in the source; they are usually repeats but may differ in a detail not shown here. Identical values can stand only once. One block for each compound: values may come before it.

Tests used:
MDA-MB-231 cells = test: Cell viability assay (MTT), MDA-MB-231; assay type: cell-based, human; settings: for cell viability (MTT signal): S_Fig12f, listed as Comp 21.8
Method: MDA-MB-231 breast cancer cells and A549 lung carcinomas (1500 cells in 150 μl/well) were seeded overnight on a clear 96-well plate. Twenty-four hours later, the cells were treated with 0.1% DMSO, or different concentrations of Rasarfin (as indicated), or 10 µM of 21.4, 21.8 (MDA-MB-231 breast cancer cells) or Doxorubicin for the indicated times at 37 °C. At each time point, 10 μl of 5 mg/ml MTT was added to each well and the plates were incubated for an additional 4 h at 37 °C. The absorbance at 590 nm was measured by plate reader. Experiments were done in triplicate and repeated three times.

H-Ras = H-Ras (Homo sapiens, UniProt P01112); test: In vitro mant-GTP exchange assay, purified H-Ras with purified SOS1; assay type: biochemical; parameters: the cDNA of H-Ras (full length) was obtained by RT-PCR of HEK293SL; GST (N); host or cells: E. coli BL21
Chain of H-Ras (P01112 whole entry): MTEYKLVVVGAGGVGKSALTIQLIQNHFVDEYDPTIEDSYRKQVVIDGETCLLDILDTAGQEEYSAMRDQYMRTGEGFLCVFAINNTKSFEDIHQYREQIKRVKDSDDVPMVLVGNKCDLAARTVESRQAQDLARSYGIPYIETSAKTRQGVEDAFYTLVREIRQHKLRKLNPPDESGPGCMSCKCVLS
Method: Ras activity was assessed in a 384-well black bottom plate using the mant-GTP exchange factor assay that measures the uptake of the fluorescent nucleotide analog N-methylanthraniloyl-GTP (mant-GTP) into GTPases. For Ras activation, 2X exchange buffer, 1.66 μg of purified pGEX-6P-1-H-Ras or pGEX-6P-1-K-Ras-WT or pGEX-6P-1-K-Ras-Y32A were added per well in presence of DMSO, different concentrations of Rasarfin (as indicated) or 50 µM of compounds 21.4, 21.7, or 21.8. Using the Infinite 200 Pro plate reader (Tecan) with filters set at 360 nm and 440 nm for detecting the excitation and emissions, respectively, and temperature set at 20 °C, 5 readings were recorded every 5 s before the addition of either H2O, 40 mM EDTA or 0.66 μg purified SOS1. The fluorescence of mant-GTP uptake was measured every 30 sec for 30 min and quantified as the delta relative fluorescence units (RFU), which was calculated as the RFU post-addition minus the 5 averaged RFU pre-addition, per condition.

- Ras exchange activity, mant-GTP loading into H-Ras with SOS1 (Fig. 8c) (H-Ras; 50 μM): inhibited Ras exchange activity
Structure (SMILES): CCCC(=O)N1CCN(c2ccc(NC(=O)c3cc4ccccc4o3)cc2Cl)CC1 [Compound 21.8]
- metabolic activity of MDA-MB-231 cells (MTT) (MDA-MB-231 cells; 10 µM): moderately decreasing the metabolic activity of cancer cells
- cell viability (MTT signal) (MDA-MB-231 cells; 24h): 0.2449 and 0.2125 and 0.1916
- cell viability (MTT signal) (MDA-MB-231 cells; 48h): 0.2769 and 0.2869 and 0.2058
- cell viability (MTT signal) (MDA-MB-231 cells; 72h): 0.2794 and 0.3667 and 0.3826

Structure (SMILES): CC(C)C(=O)N1CCN(c2ccc(NC(=O)c3cc4ccccc4o3)cc2Cl)CC1 [Compound 21]
- MDA-MB-231 cell viability (MTT) (MDA-MB-231 cells; Doxorubicin 10 µM): cell viability was not affected
- metabolic activity of MDA-MB-231 cells (MTT) (MDA-MB-231 cells; after 48 and 72 h of treatment, compared to DMSO): modestly decreased in a dose-dependent manner the metabolic activity of cancer cells
- uptake of mant-GTP into purified H-Ras in presence of SOS1 (H-Ras; different concentrations): inhibited in a dose-dependent manner the uptake of GTP into Ras
